Key:
MDA-MB-231 cells = experiment: CellTiter-Glo Luminescent Cell Viability Assay on ER-negative breast cancer MDA-MB-231 cells in vitro; format: cell-based; conditions: Homo sapiens, 72 hours, read-out: Inhibition of viability of breast cancer cells IC50, MDA-MB-231 cells
Protocol: A: CellTiter-Glo® Luminescent Cell Viability Assay on ER-Negative Breast Cancer MDA-MB-231 In Vitro:
MDA-MB-231 cells were maintained at 37° C., in a 5% CO2 atmosphere in DMEM and 10% fetal calf serum. The cells were placed at a density of 6×10^3 cells per well in a 96-well plate. MDA-MB-231 cells were treated with a test compound dissolved in DMSO at the concentration of 0, 0.3 μM, 0.5 μM, 1 μM, 2 μM, 3 μM, 5 μM, 10 μM, 20 μM, 30 μM, 50 μM and 100 μM for 72 hours. Treated cells were examined under CellTiter-Glo® Luminescent Cell Viability Assay Kit (Promega), and luminescence were recorded with Envision.

[1] = tested on: gastric cancer BGC-823 cells; experiment: Inhibition of gastric cancer cell BGC-823 in vitro by MTT method; format: cell-based; conditions: Homo sapiens; BGC-823, MTT, 72 hours, FIG. 4; read-out: IC50, in vitro inhibition on cell line BGC-823 of gastric cancer
Protocol: A: Inhibition of Gastric Cancer Cell BGC-823 In Vitro by the Compounds by MTT Method
(§1) The gastric cancer BGC-823 cells were subseeded in a 96-well culture plate at a concentration of 3×10^3 cells/well and maintained in phenol red free DMEM medium containing 2.5% CS-FBS at 37° C. in a 5% CO2 atmosphere. BGC-823 cells were treated with a test compound dissolved in DMSO at the concentration of 0, 1, 2, 4, 8, 10 and 20 μM for 72 hours. OD value was tested by MTT method, and the inhibition percentage was calculated.

[2] = tested on: human endometrial cancer Ishikawa cells xenograft tumor; experiment: Inhibition of growth of human endometrial cancer Ishikawa cells xenografts in nude mice; format: in vivo; conditions: FIG. 11
Protocol: Nude mice with Human endometrial cancer Ishikawa cells Xenograft Tumor were treated with the test compounds to test their effect on inhibiting tumor growth. Tumor was taken from nude mice with Ishikawa cells and cut into small pieces. Small pieces of tumor were implanted into the armpit under the right front limb of female nude mice. After the implantation, the mice were injected with E2β solution once a day at the dosage of 7 μg per mouse for 6 days to stimulate growth in the expriment mice. […] Medroxyprogesterone acetate was used as a positive control. Mixed oil was used as a negative control. The test compound was dispersed in mixed oil (20 mg/mL). […] Then the mice were sacrificed and the tumor tissues were dissected and weighed. The tumor growth inhibition rate was a percentage calculated using the formula: tumor growth inhibition rate=(average weight of the tumor in the negative control—average weight of the tumor treated with test compound) / average weight of the tumor in the negative control. The result is drawn as bar graph, referring to FIG. 11.

Daudi cells = experiment: Inhibition of human B lymphoma Daudi cells by CellTiter-Glo Luminescent Assay in vitro; format: cell-based; conditions: Homo sapiens, 72 hours, read-out: Inhibition of viability of cells in vitro IC50, Daudi cells
Protocol: A: Inhibition of Human B Lymphoma Daudi Cells by CellTiter-Glo® Luminescent Assay In Vitro
The Human B Lymphoma Daudi cells from ATCC were maintained in IMDM and 10% fetal calf serum at 37° C. in a 5% CO2 atmosphere. The cells were subseeded in a 96-well culture plate at a concentration of 6×10^3 cells/well. Human B Lymphoma Daudi cells were treated with a test compound dissolved in DMSO at the concentration of 0, 0.3 μM, 0.5 μM, 1 μM, 2 μM, 3 μM, 10 μM, 20 μM, 30 μM, 50 μM and 100 μM for 72 hours. Treated cells were examined by CeliTiter-Glo® Luminescent Cell Viability Assay Kit (Promega), and luminescence were recorded with Envision.

MCF7 cells = experiment: CellTiter-Glo Luminescent Cell Viability Assay on ER-positive breast cancer MCF-7 cells in vitro; format: cell-based; conditions: Homo sapiens, 72 hours, read-out: Inhibition of viability of breast cancer cells IC50, MCF7 cells
Protocol: B: CellTiter-Glo® Luminescent Cell Viability Assay on ER-Positive Breast Cancer MCF-7 Cells In Vitro:
MCF7 cells from ATCC were maintained in an Dulbecco's modified Eagle medium (DMEM), and 10% fetal calf serum at 37 in a 5% CO2 atmosphere. Cells were placed at a density of 6×10^3 cells per well in a 96-well plate. MCF 7 cells were treated with a test compound dissolved in DMSO at the concentration of 0, 0.3 μM, 0.5 μM, 1 μM, 2 μM, 3 μM, 5 μM, 10 μM, 20 μM, 30 μM, 50 μM and 100 μM for 72 hours. Treated cells were examined through CellTiter-Glo® Luminescent Cell Viability Assay Kit (Promega), and luminescence were recorded with Envision.

[3] = tested on: pancreatic cancer PANC-1 cells; experiment: Inhibition of pancreatic cancer cells PANC-1 in vitro by MTT method; format: cell-based; conditions: Homo sapiens; PANC-1, MTT, 72 hours, FIG. 7; read-out: IC50, in vitro inhibition on cell line PANC-1 of pancreatic cancer
Protocol: A: Inhibition of Pancreatic Cancer Cells PANC-1 In Vitro by the Compounds by MTT Method
as §1, with “pancreatic” for “gastric”, “PANC-1” for “BGC-823”, “1640” for “DMEM”

BEL-7402 cells = experiment: Inhibition of liver cancer cell BEL-7402 in vitro by SRB; format: cell-based; conditions: Homo sapiens, 10^−6M, 72 hours, read-out: The inhibition percentage of cell proliferation by the compounds with a concentration of 10^−6M, BEL-7402 cells
Protocol: A: Inhibition of Liver Cancer Cell BEL-7402 In Vitro by the Compounds Detected by SRB
The liver cancer BEL-7402 cells from ATCC were maintained in DMDM, 10% NCS and 50 μg/ml KANA at 37° C. in a 5% CO2 atmosphere, and were subseeded in a 96-well culture plate at a concentration of 6×10^3 cells/well. BEL-7402 cells were treated with a test compound dissolved in DMSO at the concentration of 0, 10^−4M, 10^−5M, 10^−6M, 10^−7M, 10^−8M for 72 hours. OD value was tested by SRB method, and the inhibition percentage was calculated.

IC50 (MDA-MB-231 cells): 1.07 µM
IC50 [1]: 1 to 4 µM
IC50 (Daudi cells): 0.824 µM
IC50 (MCF7 cells): 2.01 µM
IC50 [3]: 1 to 4 µM
SMILES: CC(C)=CCc1c(O)cc(O)c2c(=O)c(O)c(-c3ccc(C(F)(F)F)cc3)oc12 [Compound 1, 2-(4-trifluoromethylphenyl)-3,5,7-trihydroxy-8-(3-methyl-2-buten-1-yl)-4H-chromen-4-one]
average tumor weight, inhibition on tumor growth ([2]; Ishikawa bearing nude mice, 17.5, 35 and 70 mg/kg, 20 days of continuous administration): dominant inhibition on tumor growth
inhibition effect compared with control drug DMPA ([2]; Ishikawa bearing nude mice, versus DMPA 120 mg/kg, 20 days): higher than control drug
inhibition at 1 µM (BEL-7402 cells): 23.7%
